Patent US6160004A, “C-10 carbon-substituted artemisinin-like trioxane compounds having antimalarial, antiproliferative and antitumor activities” (priority 1998, dated 2000)
Like-named read-outs stand apart in the source and are kept apart here.

What was measured:
CCRF-CEM = assay: cells; format: cell-based; conditions: Homo sapiens, 48 h; for CC50: read-out: Log10 LC50 (converted)
HOP-62 = assay: cells; format: cell-based; conditions: Homo sapiens; HOP-62, non-small cell lung cancer, 48 h; read-out: Log10 TGI (converted)
HCT-15 = assay: cells; format: cell-based; conditions: Homo sapiens, read-out: Log10 LC50 (converted)
RXF 393 = assay: cells; format: cell-based; conditions: Homo sapiens
OVCAR-8 = assay: cells; format: cell-based; conditions: Homo sapiens, OVCAR-8, 48 h, read-out: Log10 LC50 (converted)
TK-10 = assay: cells; format: cell-based; conditions: Homo sapiens; for CC50: read-out: Log10 LC50 (converted)
UACC-257 = assay: cells; format: cell-based
OVCAR-3 = assay: cells; format: cell-based; conditions: Homo sapiens; for CC50: read-out: Log10 LC50 (converted)
OVCAR-5 = assay: cells; format: cell-based; conditions: Homo sapiens
NCI-H23 = assay: cells; format: cell-based; conditions: Homo sapiens; NCI-H23, non-small cell lung cancer, 48 h; read-out: Log10 LC50 (converted)
MCF7 = assay: cells; format: cell-based; conditions: Homo sapiens
SK-OV-3 = assay: cells; format: cell-based; conditions: Homo sapiens; for IC (TGI): read-out: Log10 TGI (converted)
M14 = assay: NCI 60 cell line panel screening assay (SRB), M14; conditions: Homo sapiens, M14, 48 h
MDA-N = assay: NCI 60 cell line panel screening assay (SRB), MDA-N; format: cell-based; conditions: Homo sapiens, breast cancer, 48 h
SNB-19 = assay: cells; format: cell-based; conditions: Homo sapiens; for CC50: read-out: Log10 LC50 (converted)
BT-549 = assay: cells; format: cell-based; conditions: Homo sapiens, read-out: Log10 LC50 (converted)
A498 = assay: cells; format: cell-based; conditions: Homo sapiens
DU-145 = assay: cells; format: cell-based
K-562 = assay: cells; format: cell-based; conditions: Homo sapiens; for CC50: read-out: Log10 LC50 (converted)
SN12C = assay: NCI 60 cell line panel screening assay (SRB), SN12C; format: cell-based; conditions: Homo sapiens, 48 h
MOLT-4 = assay: cells; conditions: Homo sapiens; for IC50: MOLT-4, read-out: concentration for primary growth inhibition (PG +50)
UACC-62 = assay: cells; format: cell-based; conditions: Homo sapiens, UACC-62, melanoma, 48 h
T-47D = assay: NCI 60 cell line panel screening assay (SRB), T-47D; conditions: Homo sapiens, T47D, 48 h; for CC50: read-out: Log10 LC50 (converted)
PC-3 = assay: cells; format: cell-based; conditions: Homo sapiens; PC-3, prostate cancer, 48 h; read-out: Log10 GI50 (converted)
786-0 = assay: cells; format: cell-based; conditions: Homo sapiens, 786-0, 48 h, read-out: Log10 GI50 (converted)
RPMI-8226 = assay: NCI 60 cell line panel screening assay (SRB), RPMI-8226; format: cell-based; conditions: Homo sapiens
SW-620 = assay: NCI 60 cell line panel screening assay (SRB), SW-620; format: cell-based; conditions: Homo sapiens
HS 578T = assay: cells; format: cell-based; conditions: Homo sapiens, Hs-578T, 48 h, read-out: Log10 GI50 (converted)
U251 = assay: cells; format: cell-based; conditions: Homo sapiens, U-251, 48 h, read-out: Log10 GI50 (converted)
[1] = read-out: Log10 LC50 (converted)
[2] = MOLT-4, 48 h, read-out: Log10 LC50 (converted)
[3] = MOLT-4, read-out: concentration for cytotoxicity (PG -50)
[4] = read-out: Log10 GI50 (converted)

C[C@H]1[C@@H](F)O[C@@H]2O[C@@]3(C)CC[C@H]4[C@H](C)CC[C@@H]1[C@@]24OO3 [Compound VI, 10β-Fluoro-10-deoxoartemisinin]
CC50 (CCRF-CEM; leukemia): > 100 µM | IC (TGI) (HOP-62): 61.7 µM | CC50 (HCT-15; HCT-15, 48 h): > 100 µM | CC50 (RXF 393; RXF 393, 48 h, read-out: Log10 LC50 (converted)): > 100 µM | IC (TGI) (RXF 393; RXF 393, renal cancer, 48 h, read-out: Log10 TGI): > 100 µM | CC50 (OVCAR-8): > 100 µM | CC50 (TK-10; TK-10, 48 h): > 100 µM | CC50 (UACC-257; Homo sapiens, UACC-257, 48 h, read-out: Log10 LC50 (converted)): > 100 µM | IC (TGI) (UACC-257; Homo sapiens, UACC-257, 48 h; read-out: Log10 TGI (converted)): > 100 µM | CC50 (OVCAR-3; OVCAR-3, 48 h): > 100 µM | IC (TGI) (OVCAR-3; OVCAR-3, ovarian cancer, 48 h, read-out: Log10 TGI (converted)): > 100 µM | CC50 (OVCAR-5; OVCAR-5, 48 h, read-out: Log10 LC50 (converted)): > 100 µM | GI50 (OVCAR-5; OVCAR-5, ovarian cancer, 48 h, read-out: Log10 GI50 (converted)): 17 µM | IC (TGI) (OVCAR-5; OVCAR-5, ovarian cancer, 48 h, read-out: Log10 TGI (converted)): > 100 µM | CC50 (NCI-H23): > 100 µM | CC50 (MCF7; MCF7, 48 h, read-out: Log10 LC50 (converted)): > 100 µM | IC (TGI) (MCF7; MCF7, breast cancer, 48 h, read-out: Log10 TGI): > 100 µM | CC50 (SK-OV-3; SK-OV-3, 48 h, read-out: Log10 LC50 (converted)): > 100 µM | GI50 (SK-OV-3; SK-OV-3, ovarian cancer, 48 h, read-out: Log10 GI50 (converted)): 24 µM | IC (TGI) (SK-OV-3; SK-OV-3, ovarian cancer, 48 h): > 100 µM | CC50 (M14; [1]): > 100 µM | IC (TGI) (M14; read-out: Log10 TGI): > 100 µM | CC50 (MDA-N; [1]): > 100 µM | IC (TGI) (MDA-N; read-out: Log10 TGI (converted)): 21.4 µM | CC50 (SNB-19; SNB-19, 48 h): > 100 µM | IC (TGI) (SNB-19; SNB-19, CNS cancer, 48 h, read-out: Log10 TGI): > 100 µM | CC50 (BT-549; BT-549, 48 h): > 100 µM | CC50 (A498; A498, 48 h, read-out: Log10 LC50 (converted)): > 100 µM | IC (TGI) (A498; A498, renal cancer, 48 h, read-out: Log10 TGI): > 100 µM | CC50 (DU-145; Homo sapiens, DU-145, 48 h, read-out: Log10 LC50 (converted)): > 100 µM | GI50 (DU-145; Homo sapiens, DU-145, 48 h; read-out: Log10 GI50 (converted)): 19.5 µM | IC (TGI) (DU-145; Homo sapiens, DU-145, 48 h; read-out: Log10 TGI): > 100 µM | CC50 (K-562; K562, K-562, leukemia, 48 h): > 100 µM | CC50 (SN12C; [1]): > 100 µM | IC (TGI) (SN12C; renal cancer, read-out: Log10 TGI): > 100 µM | CC50 (MOLT-4; [2]): > 100 µM | CC50 (MOLT-4; [3]): > 100 µM | IC50 (MOLT-4): ~0.1 µM | GI50 (UACC-62; [4]): 2.34 µM | IC (TGI) (UACC-62; read-out: Log10 TGI): > 100 µM | CC50 (T-47D): > 100 µM

CC1CCC2C(C)C(CC(=O)c3ccc(C(=O)CC4OC5OC6(C)CCC7C(C)CCC(C4C)C57OO6)cc3)OC3OC4(C)CCC1C32OO4 (centres unmarked) [Dimer 38]
GI50 (CCRF-CEM; [4]): < 0.01 µM | CC50 (CCRF-CEM): > 100 µM | GI50 (PC-3): < 0.01 µM | CC50 (HCT-15; HCT-15, colon cancer, 48 h): > 100 µM | GI50 (786-0): 0.0151 µM | CC50 (RPMI-8226; RPMI-8226, 48 h, read-out: Log10 LC50 (converted)): > 100 µM | GI50 (RPMI-8226; RPMI-8226, leukemia, 48 h, read-out: Log10 GI50 (converted)): < 0.01 µM | IC (TGI) (RPMI-8226; RPMI-8226, leukemia, 48 h, read-out: Log10 TGI): < 0.01 µM | CC50 (TK-10; TK-10, renal cancer, 48 h): > 100 µM | IC (TGI) (TK-10; TK-10, renal cancer, 48 h, read-out: Log10 TGI): > 100 µM | GI50 (UACC-257; Homo sapiens, UACC-257, 48 h, read-out: Log10 GI50 (converted)): 0.0209 µM | CC50 (UACC-257; Homo sapiens, UACC-257, 48 h; read-out: Log10 LC50 (converted)): > 100 µM | CC50 (OVCAR-3; OVCAR-3, ovarian cancer, 48 h): > 100 µM | GI50 (SW-620; SW-620, 48 h, read-out: Log10 GI50 (converted)): < 0.01 µM | CC50 (SW-620; SW-620, colon cancer, 48 h, read-out: Log10 LC50 (converted)): > 100 µM | GI50 (MCF7; MCF7, 48 h, read-out: Log10 GI50 (converted)): < 0.01 µM | IC (TGI) (SK-OV-3; SK-OV-3, ovarian cancer, 48 h): 21.4 µM | CC50 (SNB-19; SNB-19, CNS cancer, 48 h): > 100 µM | GI50 (HS 578T): < 0.01 µM | GI50 (U251): < 0.01 µM | CC50 (BT-549; BT-549, breast cancer, 48 h): > 100 µM | CC50 (DU-145; Homo sapiens, DU-145, 48 h; read-out: Log10 LC50 (converted)): > 100 µM | GI50 (K-562; K562, 48 h, read-out: Log10 GI50 (converted)): < 0.01 µM | CC50 (K-562; K562, 48 h): > 100 µM | GI50 (MOLT-4; MOLT-4, 48 h, read-out: Log10 GI50 (converted)): < 0.01 µM | CC50 (MOLT-4; [2]): > 100 µM | CC50 (MOLT-4; [3]): > 100 µM | IC50 (MOLT-4): < 0.1 µM | GI50 (T-47D; [4]): < 0.01 µM | CC50 (T-47D): > 100 µM
